Assays:
Lck (h) = Lck (h) (Homo sapiens, UniProt P06239); assay: Lck Human  Kinase Enzymatic Radiometric Assay; assay type: biochemical; details: read-out: Lck IC50 nM Range*
In short: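 Substrate 33P-incorporation measured by scintillation counting after spotting on P30 filtermat and phosphoric acid washes. Human Lck reacted 40 min at RT in 50 mM Tris pH 7.5 with 10 mM MgAcetate, [gamma-33P]-ATP, 250 uM Cdc2 peptide, 0.1 mM EGTA and 0.1 mM Na3VO4.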

[1] = molecular target: T1, Recombinant (1-346) HPK1 (h) (Homo sapiens, UniProt Q92918); assay: HPK1 Human STE Kinase Enzymatic Radiometric Assay; assay type: biochemical; details: read-out: HPK1 IC50 nM Range*
T1 construct: Recombinant (1-346) HPK1 (h) is incubated with 8 mM MOPS pH 7.0
T1 sequence (Q92918 1-346): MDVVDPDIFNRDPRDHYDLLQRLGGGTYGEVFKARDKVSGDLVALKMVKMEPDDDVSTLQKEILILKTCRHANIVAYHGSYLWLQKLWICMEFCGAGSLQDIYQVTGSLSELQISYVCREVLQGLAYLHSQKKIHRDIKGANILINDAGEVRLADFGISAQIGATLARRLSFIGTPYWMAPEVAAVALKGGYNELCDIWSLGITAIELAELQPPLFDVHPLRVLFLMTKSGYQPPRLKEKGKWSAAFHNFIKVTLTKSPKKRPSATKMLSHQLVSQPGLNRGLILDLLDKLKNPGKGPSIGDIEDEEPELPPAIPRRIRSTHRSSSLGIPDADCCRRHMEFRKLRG
Description: A stock solution of 10 mM of test compound is prepared in DMSO. The compound plate was prepared by 3-fold and 9-point serial dilutions. […] The reaction is initiated by The addition of the Mg/ATP mix. After incubation for 40 minutes at RT, the reaction is stopped by the addition of phosphoric acid to a concentration of 0.5%.

Sequence of Lck (h) (P06239 whole entry): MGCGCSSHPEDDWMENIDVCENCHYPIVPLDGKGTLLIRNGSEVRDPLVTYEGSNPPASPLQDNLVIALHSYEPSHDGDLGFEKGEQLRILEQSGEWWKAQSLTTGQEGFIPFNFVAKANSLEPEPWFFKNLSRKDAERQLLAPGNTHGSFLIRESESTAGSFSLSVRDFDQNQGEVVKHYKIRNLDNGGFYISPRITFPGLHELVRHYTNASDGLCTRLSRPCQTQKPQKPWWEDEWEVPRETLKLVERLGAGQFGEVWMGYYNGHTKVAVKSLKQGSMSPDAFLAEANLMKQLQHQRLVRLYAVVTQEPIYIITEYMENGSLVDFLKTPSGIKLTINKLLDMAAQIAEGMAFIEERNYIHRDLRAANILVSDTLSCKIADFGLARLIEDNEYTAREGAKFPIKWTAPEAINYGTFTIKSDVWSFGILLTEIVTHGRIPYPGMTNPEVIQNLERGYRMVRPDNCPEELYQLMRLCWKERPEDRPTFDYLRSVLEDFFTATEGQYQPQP

SMILES | IC50 (Lck (h)) [nM] | IC50 [1] [nM]
CC(C)N1CCOCC1c1ccc(-c2cc(-c3ccc4c(c3)CCNC4=O)c(N)nc2F)cc1 (stereo not drawn) [I-132, 6-(2-amino-6-fluoro-5-(4-(4-isopropylmorpholin-3-yl)phenyl)pyridin-3-yl)-3,4-dihydroisoquinolin-1(2H)-one] | > 1000 | 0.1 to 10
Nc1nc(F)c(-c2ccc(C3COCCN3CC(F)F)cc2)cc1-c1ccc2c(c1)CCNC2=O (stereo not drawn) [I-133, 6-(2-amino-5-(4-(4-(2,2-difluoroethyl)morpholin-3-yl)phenyl)-6-fluoropyridin-3-yl)-3,4-dihydroisoquinolin-1(2H)-one] | > 1000 | 0.1 to 10
COCCN1CCOCC1c1ccc(-c2cc(-c3ccc4c(c3)CCNC4=O)c(N)nc2F)cc1 (stereo not drawn) [I-134, 6-(2-amino-6-fluoro-5-(4-(4-(2-methoxyethyl)morpholin-3-yl)phenyl)pyridin-3-yl)-3,4-dihydroisoquinolin-1(2H)-one] | > 1000 | 0.1 to 10
Nc1nc(F)c(-c2ccc([C@]34CNC[C@H]3C4)cc2)cc1-c1ccc2c(c1)CCNC2=O [I-135, 6-(5-(4-((1R,5S)-3-azabicyclo[3.1.0]hexan-1-yl)phenyl)-2-amino-6-fluoropyridin-3-yl)-3,4-dihydroisoquinolin-1(2H)-one] | > 1000 | 0.1 to 10
CC(C)[C@H]1CN(c2ccc(-c3cc(-c4ccc5c(c4)CCNC5=O)c(N)nc3Cl)cc2)CCO1 [I-136, (S)-6-(2-amino-6-chloro-5-(4-(2-isopropylmorpholino)phenyl)pyridin-3-yl)-3,4-dihydroisoquinolin-1(2H)-one] | > 1000 | 101 to 1000
CC(C)[C@@H]1CN(c2ccc(-c3cc(-c4ccc5c(c4)CCNC5=O)c(N)nc3Cl)c(F)c2)CCO1 [I-137, (R)-6-(2-amino-6-chloro-5-(2-fluoro-4-(2-isopropylmorpholino)phenyl)pyridin-3-yl)-3,4-dihydroisoquinolin-1(2H)-one] | > 1000 | 11 to 100
Nc1nc(F)c(-c2ccc(C3=CCN(CCO)CC3)cc2)cc1-c1ccc2c(c1)CCNC2=O [I-138, 6-(2-amino-6-fluoro-5-(4-(1-(2-hydroxyethyl)-1,2,3,6-tetrahydropyridin-4-yl)phenyl)pyridin-3-yl)-3,4-dihydroisoquinolin-1(2H)-one] | > 1000 | 0.1 to 10
COCCN1CC=C(c2ccc(-c3cc(-c4ccc5c(c4)CCNC5=O)c(N)nc3F)cc2)CC1 [I-139, 6-(2-amino-6-fluoro-5-(4-(1-(2-methoxyethyl)-1,2,3,6-tetrahydropyridin-4-yl)phenyl)pyridin-3-yl)-3,4-dihydroisoquinolin-1(2H)-one] | > 1000 | 0.1 to 10
COCCN1C[C@H]2C[C@@]2(c2ccc(-c3cc(-c4ccc5c(c4)CCNC5=O)c(N)nc3F)cc2)C1 [I-140, 6-(2-amino-6-fluoro-5-(4-((1R,5S)-3-(2-methoxyethyl)-3-azabicyclo[3.1.0]hexan-1-yl)phenyl)pyridin-3-yl)-3,4-dihydroisoquinolin-1(2H)-one] | > 1000 | 0.1 to 10
CC(C)N1C[C@H]2C[C@@]2(c2ccc(-c3cc(-c4cc5c(cc4F)C(=O)NCC5)c(N)nc3F)cc2)C1 [I-141, 6-(2-amino-6-fluoro-5-(4-((1R,5S)-3-isopropyl-3-azabicyclo[3.1.0]hexan-1-yl)phenyl)pyridin-3-yl)-7-fluoro-3,4-dihydroisoquinolin-1(2H)-one] | > 1000 | 0.1 to 10
CC(C)N1C[C@@H]2C[C@]2(c2ccc(-c3cc(-c4cc5c(cc4F)C(=O)NCC5)c(N)nc3F)cc2)C1 [I-142, 6-(2-amino-6-fluoro-5-(4-((1S,5R)-3-isopropyl-3-azabicyclo[3.1.0]hexan-1-yl)phenyl)pyridin-3-yl)-7-fluoro-3,4-dihydroisoquinolin-1(2H)-one] | > 1000 | 0.1 to 10
CC(C)C(=O)N1C[C@H]2C[C@@]2(c2ccc(-c3cc(-c4ccc5c(c4)CCNC5=O)c(N)nc3F)cc2)C1 [I-143, 6-(2-amino-6-fluoro-5-(4-((1R,5S)-3-isobutyryl-3-azabicyclo[3.1.0]hexan-1-yl)phenyl)pyridin-3-yl)-3,4-dihydroisoquinolin-1(2H)-one] | > 1000 | 0.1 to 10
C[C@H]1CC(Oc2ccc(-c3cc(-c4ccc5c(c4)CCNC5=O)c(N)nc3F)cc2)C[C@H](C)N1 (stereo partly drawn) [I-144, 6-(2-amino-5-(4-(((2S,6S)-2,6-dimethylpiperidin-4-yl)oxy)phenyl)-6-fluoropyridin-3-yl)-3,4-dihydroisoquinolin-1(2H)-one] | 101 to 1000 | 0.1 to 10
Nc1nc(F)c(-c2ccc(OC3CCNCC3)c3c2OCO3)cc1-c1ccc2c(c1)CCNC2=O [I-145, 6-(2-amino-6-fluoro-5-(7-(piperidin-4-yloxy)benzo[d][1,3]dioxol-4-yl)pyridin-3-yl)-3,4-dihydroisoquinolin-1(2H)-one] | > 1000 | 0.1 to 10
Nc1nc(F)c(-c2ccc(OC3CNC3)cc2)cc1-c1ccc2c(c1)CCNC2=O [I-146, 6-(2-amino-5-(4-(azetidin-3-yloxy)phenyl)-6-fluoropyridin-3-yl)-3,4-dihydroisoquinolin-1(2H)-one] | > 1000 | 11 to 100
CC1(C)CC(Oc2ccc(-c3cc(-c4ccc5c(c4)CCNC5=O)c(N)nc3F)cc2)CCN1 (stereo not drawn) [I-147, 6-(2-amino-5-(4-((2,2-dimethylpiperidin-4-yl)oxy)phenyl)-6-fluoropyridin-3-yl)-3,4-dihydroisoquinolin-1(2H)-one] | > 1000 | 0.1 to 10
Nc1nc(F)c(-c2ccc(OC3CCNCC3)c(F)c2F)cc1-c1ccc2c(c1)CCNC2=O [I-148, 6-(2-amino-5-(2,3-difluoro-4-(piperidin-4-yloxy)phenyl)-6-fluoropyridin-3-yl)-3,4-dihydroisoquinolin-1(2H)-one] | > 1000 | 11 to 100
Nc1nc(F)c(-c2cc(F)c(OC3CCNCC3)cc2F)cc1-c1ccc2c(c1)CCNC2=O [I-149, 6-(2-amino-5-(2,5-difluoro-4-(piperidin-4-yloxy)phenyl)-6-fluoropyridin-3-yl)-3,4-dihydroisoquinolin-1(2H)-one] | > 1000 | 11 to 100
COc1cc(OC2CCNCC2)ccc1-c1cc(-c2ccc3c(c2)CCNC3=O)c(N)nc1F [I-150, 6-(2-amino-6-fluoro-5-(2-methoxy-4-(piperidin-4-yloxy)phenyl)pyridin-3-yl)-3,4-dihydroisoquinolin-1(2H)-one] | > 1000 | 11 to 100
COc1cc(-c2cc(-c3ccc4c(c3)CCNC4=O)c(N)nc2F)ccc1OC1CCNCC1 [I-151, 6-(2-amino-6-fluoro-5-(3-methoxy-4-(piperidin-4-yloxy)phenyl)pyridin-3-yl)-3,4-dihydroisoquinolin-1(2H)-one] | > 1000 | 11 to 100
Nc1nc(F)c(-c2ccc(C3CCN(C4COC4)CC3)cc2)cc1-c1ccc2c(c1)CCNC2=O [I-152, 6-(2-amino-6-fluoro-5-(4-(1-(oxetan-3-yl)piperidin-4-yl)phenyl)pyridin-3-yl)-3,4-dihydroisoquinolin-1(2H)-one] | > 1000 | 0.1 to 10
Nc1nc(F)c(-c2ccc(C3CCCCN3C3COC3)cc2)cc1-c1ccc2c(c1)CCNC2=O (stereo not drawn) [I-153, 6-(2-amino-6-fluoro-5-(4-(1-(oxetan-3-yl)piperidin-2-yl)phenyl)pyridin-3-yl)-3,4-dihydroisoquinolin-1(2H)-one] | > 1000 | 11 to 100
Nc1nc(F)c(-c2ccc(C3COCCN3C3COC3)cc2)cc1-c1ccc2c(c1)CCNC2=O (stereo not drawn) [I-154, 6-(2-amino-6-fluoro-5-(4-(4-(oxetan-3-yl)morpholin-3-yl)phenyl)pyridin-3-yl)-3,4-dihydroisoquinolin-1(2H)-one] | > 1000 | 11 to 100
Nc1nc(F)c(-c2ccc(C3=CCN(C4COC4)CC3)cc2)cc1-c1ccc2c(c1)CCNC2=O [I-155, 6-(2-amino-6-fluoro-5-(4-(1-(oxetan-3-yl)-1,2,3,6-tetrahydropyridin-4-yl)phenyl)pyridin-3-yl)-3,4-dihydroisoquinolin-1(2H)-one] | > 1000 | 0.1 to 10
Nc1nc(F)c(-c2ccc([C@@]34C[C@@H]3CN(C3COC3)C4)cc2)cc1-c1ccc2c(c1)CCNC2=O [I-156, 6-(2-amino-6-fluoro-5-(4-((1R,5S)-3-(oxetan-3-yl)-3-azabicyclo[3.1.0]hexan-1-yl)phenyl)pyridin-3-yl)-3,4-dihydroisoquinolin-1(2H)-one] | > 1000 | 0.1 to 10
CN(C)C1CCN(c2ccc(-c3cc(-c4ccc5c(c4)CCNC5=O)c(N)nc3F)cc2)C1 (stereo not drawn) [I-157, 6-(2-amino-5-(4-(3-(dimethylamino)pyrrolidin-1-yl)phenyl)-6-fluoropyridin-3-yl)-3,4-dihydroisoquinolin-1(2H)-one] | > 1000 | 0.1 to 10
CCN(C)C1CCN(c2ccc(-c3cc(-c4ccc5c(c4)CCNC5=O)c(N)nc3F)cc2)C1 (stereo not drawn) [I-158, 6-(2-amino-5-(4-(3-(ethyl(methyl)amino)pyrrolidin-1-yl)phenyl)-6-fluoropyridin-3-yl)-3,4-dihydroisoquinolin-1(2H)-one] | 101 to 1000 | 0.1 to 10
